This is an account of results in patent US10766855B2, “Hydroxamate triterpenoid derivatives” (VIVACELL BIOTECHNOLOGY ESPANA S.L., priority 2016, dated 2020).

Structures are written as SMILES. Where two headings read alike, the source gives them in different places.

Series [1] has as its system STHdhQ7/Q7 and STHdhQ111/Q111 striatal cells. Nature of the series: 3-NP-induced cytotoxicity in striatal Q7 and Q111 cells (YOYO-1). The format is cell-based, mouse. Particulars: 6 h pre-treatment, 3-NP 10 mM 24 h; compound VII increasing concentrations, DFX 50 μM. As to the method: FIG. 8. Compound VII abrogates 3-NP toxicity in Q7 and […] striatal cells. Q7 and Q111 Striatal cells were pretreated with increasing concentrations of compound VII for 6 h and then exposed to 3-NP (10 mM) for an additional 24 h, after which YOYO-1 staining was used to investigate cell death. Cell death was determined using the IncuCyte HD software and the treatment with 3-NP alone in Q111 cells was considered as 100% of cell death.
To investigate whether HIF activation in striatal Q7 and Q111 cells is sufficient to protect striatal neurons (provide neuroprotection), the effect of compound VII on 3-NP induced death was examined. […]
STHdh^Q7/Q7 and STHdh^Q111/Q111 cells (10^4 cells/well in 96-well plates) were incubated with YOYO-1 (Life Technologies) and then treated with 3-NP (10 mM) and or DFX (50 μM) as a positive control for PHDs inhibition. […] The uptake of YOYO-1 by damaged cells correlates with the increase in YOYO-1 fluorescence. Treated cells are placed in an Incucyte FLR imaging system, and the YOYO-1 fluorescence is measured after 24 h of 3-NP treatment. Following the incubation period object counting analysis was performed using the Incucyte FLR software to calculate the total number of YOYO-1 fluorescence positive cells and total DNA containing objects (end point). […]

For a further series, the system named is STAT3. Nature of the series: STAT3 inhibition in HeLa-STAT3-Luc cells stimulated with IFN-γ. Particulars: IFN-γ 25 IU/ml, 6 h. In kind it is cell-based. As to the method:
(§1) The HeLa-STAT3-luc cells stably transfected with the plasmid 4×M67 pTATA TK-Luc. Cells (20×10^3 cells/ml) were seeded in 96-well plates, treated with increasing concentrations of the compounds II to XIV, and of comparative compound CDDO-Me, for 15 min and then stimulated with IFN-γ 25 IU/ml. After 6 h the luciferase activity in the cell lysates was measured as indicated above. […] The HaCaT-ARE-Luc cell line contains the Nqo1 Antioxidant Response Element (ARE)-Luc reporter plasmid. ARE is activated by all members of the CNC family of factors (Nrf1, Nrf2, Nrf3 and p45 NF-E2). The cells were cultivated in 96-well plates at the concentration of 25×10^3 cells/well in a CO2 incubator at 37° C. For induction of Nrf2 activation the cells were treated with increasing concentrations of the compounds II to XV, and of comparative compound CDDO-Me, for 6 h. As a positive control the cells were treated with 0.02 mM of the antioxidant Tert-butyl-hydroquinone (TBHQ). Luciferase activity in the cell lysates was measured as indicated above and the EC50 calculated (Table III). The CHO-TGR5-CRE-Luc cells stably transfected with the pTGR5 and CRE-Luc. The CRE-responsive luciferase construct encodes the firefly luciferase reporter gene under the control of a minimal (m)CMV promoter and tandem repeats of the CRE transcriptional response element (TRE) and is useful to monitor cAMP signaling pathways activated by TGR5 agonists. Cells (1×10^4/well) were seeded in 96-well plates, treated with increasing concentrations of the compounds II to XV and CDDO-Me, for 6 h. As a positive control the cells were treated with 10 μM of LCA (lithocholic acid). Luciferase activity in the cell lysates was measured as indicated above and the EC50 calculated (Table III).

Series [2] deals with Nrf2. Nature of the series: Nrf2 activation/inhibition in HaCaT-ARE-Luc cells. In kind it is cell-based.
The test system of a further series is NF-κB. Kind of series: NF-κB inhibition in NIH-3T3-KBF-Luc cells stimulated with TNFα. In kind it is cell-based. Particulars: TNFα 30 ng/ml, 6 h. As to the method: To further study the target selectivity of the compounds described in the present invention the effect of the natural triterpenoids (OA; BA, UA, and MA), compounds II to XV of Formula (I) disclosed in present invention, and of comparative compound CDDO-Me on NF-κB inhibition, STAT-3 inhibition, Nrf2 activation and TGR5 activation was analyzed. For this study cell lines NIH-3T3-KBF-Luc, HeLa-STAT3-Luc, HaCaT-ARE-Luc and CHO-TGR5-CRE-luc were used respectively. The NIH3T3-KBF-Luc cell line stably transfected with the plasmid KBF-Luc plasmid, which contains three copies of NF-κB binding site (from major histocompatibility complex promoter), fused to a minimal simian virus 40 promoter driving the luciferase gene. Cells (1×10^4/well) were seeded in 96-well plates, treated with increasing concentrations of the compounds II to XV for 15 min and then stimulated with 30 ng/ml TNFα. After 6 h the luciferase activity in the cell lysates was measured as indicated above.

Series [3] concerns Nrf2. Nature of the series: Nrf2 activation/inhibition in HaCaT-ARE-Luc cells. In kind it is cell-based. The conditions noted are these: 6 h. As to the method:
as §1

In another series the test system is TGR5. Kind of series: TGR5 activation in CHO-TGR5-CRE-Luc cells. The format is cell-based. Particulars: for EC50: 6 h.
Another series has as its system HIF-1α. Kind of series: HIF-1α transactivation assay in NIH-3T3-EPO-Luc fibroblast cells. The format is cell-based. Particulars: for Efficacy HIF-1α (IRA coefficient) / EC50: 6 h stimulation; for Efficacy HIF-1α (IRA coefficient): relative to 150 μM DFX; for EC50: read-out: Potency EC50 HIF-1α. As to the method:
To investigate the biological activities of the different compounds, HIF-1α transactivation assays were performed either in NIH-3T3-EPO-Luc cells (Table II) or in HaCaT-EPO-luc cells (FIG. 2). The NIH3T3-EPO-luc and HaCaT-EPO-luc cells have been stably transfected with the plasmid Epo-Luc plasmid. The EPO-Hypoxia Response Element (HRE)-luciferase reporter plasmid contains three copies of the HRE consensus sequence from the promoter of the erythropoietin gene fused to the luciferase gene. NIH3T3-EPO-luc cells were maintained at 37° C. in a humidified atmosphere containing 5% CO2 in DMEM supplemented with 10% fetal calf serum (FBS), and 1% (v/v) penicillin/streptomycin. DFX was purchased from Sigma-Aldrich (USA). Cells (1×10^4/well in 96 well plates) were seeded the day before the assay. […] After six hours of stimulation the cells were lysed in 25 mM Tris-phosphate pH 7.8, 8 mM MgCl2, 1 mM DTT, 1% Triton X-100, and 7% glycerol during 15 min at RT in a horizontal shaker. Luciferase activity is measured using a microplate luminometer (Berthold) following the instructions of the luciferase assay kit (Promega, Madison, Wis., USA).

Description for TGR5: The CHO-TGR5-CRE-Luc cells stably transfected with the pTGR5 and CRE-Luc. […] As a positive control the cells were treated with 10 μM of LCA (lithocholic acid). Luciferase activity in the cell lysates was measured as indicated above and the EC50 calculated (Table III).

Regarding `CC(=O)N(O)CCCCCNC(=O)CCC(=O)N(O)CCCCCNC(=O)CCC(=O)N(O)CCCCCN` [DFX, desferrioxamine, reference compound], in series [1], the “neuroprotection to 3-NP-induced cytotoxicity (cell death)” value is reported as “also protected the cells from the cytotoxic activity of 3-NP”.

As for `CC1(C)CC[C@]2(C(=O)NO)CC[C@]3(C)C(=CC[C@@H]4[C@@]5(C)CC[C@H](O)C(C)(C)[C@@H]5CC[C@]43C)[C@@H]2C1` [Compound II, (3β) 3-Hydroxy-N-hydroxy-olean-12-en-28-amide], the IC50 in the series on STAT3, in the series on Nrf2 [2] and with NF-κB was more than 50 µM each time. Further, the values for the EC50 in the series with Nrf2 [3], in the series on TGR5 and in the series with HIF-1α (Fibroblast) were more than 50 µM, more than 50 µM and 16.4 µM, respectively. In addition, the “Efficacy HIF-1α (IRA coefficient)” value with HIF-1α is 0.39.

`CC1(C)CC[C@]2(C(=O)NO)CC[C@]3(C)C(=CC[C@@H]4[C@@]5(C)C[C@@H](O)[C@H](O)C(C)(C)[C@@H]5CC[C@]43C)[C@@H]2C1` [Compound XIV, (2α,3β) 2,3-Dihydroxy-N-hydroxy-olean-12-en-28-amide]: the 50% inhibitory concentration (IC50) in the series with STAT3, with Nrf2 [2] and in the series with NF-κB was more than 50 µM in each case. Moreover, the figures for the EC50 with Nrf2 [3], in the series on TGR5 and in the series with HIF-1α (Fibroblast) were more than 50 µM, more than 50 µM and 7.1 µM, respectively. The “Efficacy HIF-1α (IRA coefficient)” value with HIF-1α came to 0.10.

For `CC1(C)CC[C@]2(C(=O)O)CC[C@]3(C)C(=CC[C@@H]4[C@@]5(C)C[C@@H](O)[C@H](O)C(C)(C)[C@@H]5CC[C@]43C)[C@@H]2C1` [Maslinic acid, reference compound], the IC50 in the series with STAT3, in the series with Nrf2 [2] and in the series on NF-κB was more than 50 µM in each case. The EC50 in the series with Nrf2 [3] is more than 50 µM; in the series on TGR5, 10.2 µM; in the series with HIF-1α (Fibroblast) it was more than 50 µM. The “activation of the EPO promoter as a surrogate marker of HIF-1α pathway activation (in words)” value in the series with HIF-1α is on record as “None of the natural triterpenoids”.

As for `C[C@H]1[C@H](C)CC[C@]2(C(=O)NO)CC[C@]3(C)C(=CC[C@@H]4[C@@]5(C)CC[C@H](O)C(C)(C)C5CC[C@]43C)[C@H]12` (stereo partly drawn) [Compound XII, (3β) 3-Hydroxy-N-hydroxy-urs-12-en-28-amide], the IC50 in the series on STAT3, in the series on Nrf2 [2] and with NF-κB was more than 50 µM throughout. For the same molecule, the EC50 is more than 50 µM in the series with Nrf2 [3], 5.91 µM in the series on TGR5 and 7.69 µM in the series on HIF-1α (Fibroblast). For the same molecule, the “agonistic TGR5 activity (in words)” value in the series on TGR5 is recorded as “showed agonistic TGR5 activity”. Further, the “Efficacy HIF-1α (IRA coefficient)” value in the series on HIF-1α stood at 0.17.

For the molecule `C=C(C)[C@@H]1CC[C@]2(C(=O)NO)CC[C@]3(C)[C@H](CC[C@@H]4[C@@]5(C)CC/C(=N\O)C(C)(C)[C@@H]5CC[C@]43C)[C@@H]12` [Compound XI, 3-Hydroxyimino-N-hydroxy-lup-20(29)-en-28-amide], the IC50 in the series with STAT3, with Nrf2 [2] and with NF-κB was more than 50 µM throughout. For the same molecule, the results for the concentration giving a half-maximal response (EC50) with Nrf2 [3], in the series with TGR5 and in the series with HIF-1α (Fibroblast) were more than 50 µM, 17.5 µM and 2.58 µM, respectively. For the same molecule, the “agonistic TGR5 activity (in words)” value with TGR5 is given as “showed agonistic TGR5 activity”. Besides, the “Efficacy HIF-1α (IRA coefficient)” value in the series with HIF-1α is on record as 0.31.

Regarding `CC1(C)CC[C@]2(C(=O)NO)CC[C@]3(C)C(=CC[C@@H]4[C@@]5(C)CC=CC(C)(C)[C@@H]5CC[C@]43C)[C@@H]2C1` [Compound VI, Oleana-2,12-dien-N-hydroxy-28-amide], the IC50 in the series with STAT3, with Nrf2 [2] and with NF-κB was more than 50 µM throughout. The concentration for a half-maximal effect (EC50) in the series with Nrf2 [3] is more than 50 µM; with TGR5 it was more than 50 µM; in the series with HIF-1α, 5 µM. The “Efficacy HIF-1α (IRA coefficient)” value in the series with HIF-1α was 0.16.
